Active and inactive are the calls of the source. The rule behind the calls is not given here.
Tests used:
Rattus norvegicus [1] = assay: Antiallergic activity in iv dosed Sprague-Dawley rat assessed as inhibition of egg albumin-induced passive cutaneous anaphylaxis administered immediately prior to egg albumin challenge measured after 30 mins by Evan blue dye leakage assay relative to disodium cromoglycate; format: functional
Rattus norvegicus [2] = assay: Antiallergic activity in Sprague-Dawley rat assessed as inhibition of egg albumin-induced passive cutaneous anaphylaxis up to 20 mg/kg, iv administered immediately prior to egg albumin challenge measured after 30 mins by Evan blue dye leakage assay; format: functional, organism-based; design: dose 20 mg/kg
Rattus norvegicus [3] = assay: Antiallergic activity in po dosed Sprague-Dawley rat assessed as inhibition of egg albumin-induced passive cutaneous anaphylaxis administered 5 mins prior to egg albumin challenge measured after 30 mins by Evan blue dye leakage assay; format: functional; conditions: read-out: ID50 (the source's name)
[4] = Dissociation constant, pKa of the compound; format: physicochemical

SMILES	fold change (FC) (Rattus norvegicus [1])	further results
Cc1oc2ccccc2c(=O)c1-c1nnn[nH]1	0.1	
CC(C)(C)n1nnc(-c2coc3ccccc3c2=O)n1		inhibition (Rattus norvegicus [2]): inactive
O=c1c(-c2nnn[nH]2)coc2ccc(Cl)cc12	4	
O=c1c(-c2nnn[nH]2)coc2cc(O)ccc12	1.1	
CCOC(=O)c1ccc2occ(-c3nnn[nH]3)c(=O)c2c1	2.9	
O=c1c(-c2nnn[nH]2)coc2ccc([N+](=O)[O-])cc12	4	
CCCCOc1ccc2c(=O)c(-c3nnn[nH]3)coc2c1	0.9	
CCCCc1ccc2occ(-c3nnn[nH]3)c(=O)c2c1	1.8	
Cc1cc(C)c2occ(-c3nnn[nH]3)c(=O)c2c1	11.6	ED50 (Rattus norvegicus [3]): 1.25 mg/kg
CC(C)c1ccc2occ(-c3nnn[nH]3)c(=O)c2c1	3.4	ED50 (Rattus norvegicus [3]): 17 mg/kg
O=c1c(-c2nnn[nH]2)coc2ccc(O)cc12	4.5	
CCc1ccc2occ(-c3nnn[nH]3)c(=O)c2c1	4	ED50 (Rattus norvegicus [3]): 6.9 mg/kg
CCCCc1ccc2occ(/C=C/c3nnn[nH]3)c(=O)c2c1	0.07	
O=c1c(-c2nnn[nH]2)coc2c1ccc1ccccc12	8.3	ED50 (Rattus norvegicus [3]): 7.4 mg/kg
Cc1oc2ccccc2c(=O)c1Cc1nnn[nH]1		inhibition (Rattus norvegicus [2]): inactive
COc1ccc2occ(-c3nnn[nH]3)c(=O)c2c1	2.2	ED50 (Rattus norvegicus [3]): 7 mg/kg

SMILES	fold change (FC) (Rattus norvegicus [1])	further results
O=C([O-])c1cc(=O)c2c(OCC(O)COc3cccc4oc(C(=O)[O-])cc(=O)c34)cccc2o1.[Na+].[Na+] [CROMOLYN SODIUM]		ED50 (Rattus norvegicus [3]): > 100 mg/kg
O=C(O)c1coc2ccccc2c1=O		pKa [4]: 8.85
CCCCCCc1ccc2occ(-c3nnn[nH]3)c(=O)c2c1	0.6	
O=c1cc(-c2nnn[nH]2)oc2ccccc12	1.4	
N#Cc1coc2ccccc2c1=O		pKa [4]: 5.85
O=c1c(/C=C/c2nnn[nH]2)coc2ccccc12	0.3	
Cc1nnc(-c2coc3ccccc3c2=O)o1		inhibition (Rattus norvegicus [2]): inactive
O=c1c(-c2nnn[nH]2)coc2cc(O)c(O)cc12	1.8	
O=c1c(-c2nnn[nH]2)coc2ccccc12	3.5	ED50 (Rattus norvegicus [3]): 5.3 mg/kg
O=c1c(-c2nnn[nH]2)coc2ccc3ccccc3c12	5	ED50 (Rattus norvegicus [3]): 8.5 mg/kg
Cc1ccc2occ(-c3nnn[nH]3)c(=O)c2c1	2.4	ED50 (Rattus norvegicus [3]): 10 mg/kg
O=c1c(-c2nnn[nH]2)coc2ccc(C3CCCCC3)cc12	0.5	
CCCc1ccc2occ(-c3nnn[nH]3)c(=O)c2c1	3.4	
O=C(Cc1nnn[nH]1)c1ccccc1O	0.35	
O=c1c(CCc2nnn[nH]2)coc2ccccc12	0.07	
CN(C)c1ccc2occ(-c3nnn[nH]3)c(=O)c2c1	2.3	

Reference: ChEMBL document CHEMBL3272150, “Studies on antianaphylactic agents. 5. Synthesis of 3-(1H-tetrazol-5-yl)chromones, a new series of antiallergic substances” (J Med Chem, 1977)
